Experimental data from PMC7615676, “Short-course combination treatment for experimental chronic Chagas disease” (Science translational medicine, 2023).
≈ marks a conversion by molar mass, not a printed value. Read-outs that look alike come from different tables or passages of the source.

Key:
[1] = design: method as in PMID 21073628, PMID 20932171; conditions: patients; cited from earlier work
HepG2 cells = test: general cytotoxicity assay in HepG2 cells; format: cell-based; conditions: Homo sapiens, HepG2, 48 h, CellTiter-Glo
Description: This assay was previously described ([36]). Briefly, actively growing HepG2 cells were removed from a T-175 TC flask using 5 ml Eagle’s MEM (containing 10 % FBS, 1 % NEAA, 1 % penicillin/ streptomycin. Carbon source is D-glucose at 1 g/l) and dispersed in the medium by repeated pipetting. Seeding density was checked to ensure that new monolayers were not more than 50 % confluent at the time of harvesting. Cell suspension was added to 500 ml of the same medium at a final density of 1.2 x 10^5 cells/ml. This cell suspension was dispensed (25 μl, 3000 cells per well) into 384-well clear-bottom plates using a Multidrop Combi dispenser. Prior to addition of the cell suspension, the screening compounds (250 nl) were predispensed into the plates with an EchoH liquid handler. Plates were incubated for 48 h at 37°C, 5% CO2. After incubation, plates equilibrated at room temperature for 30 min before proceeding to develop the luminescent signal. The signal developer, CellTiter-Glo Reagent, was allowed to equilibrate at room temperature for 30 min and added to the plates ([…]) using a Multidrop Combi dispenser. Plates were left for 10 min at room temperature for stabilization and then read using a ViewLux.

Vero host cells = test: cytotoxicity against host cells in intracellular amastigote assay; format: cell-based; conditions: host cell cytotoxicity; for EC50: Chlorocebus sabaeus, Vero
[2] = test system: T. cruzi culture derived trypomastigotes, strain Silvio X10/7 A1; test: trypomastigote assay; format: cell-based; conditions: Trypanosoma cruzi
Description: Trypomastigote assays using strain Silvio X10/7 subclone A1 were carried out as described in ([19]). Parasite culture and potency determinations for panel of strains were performed as in ([19]). Strains used were M6241 clone 6 (DTU III), ERA clone 2 (DTU IV), PAH179 clone 5 (DTU V) and CL Brener-Luciferase (PpyRE9h-expressing T. cruzi, same strain that is used in animal model studies ([67])) (DTU VI). […] For Y strain compound exposure time was 3 days. Rate-of-kill assays were carried out as described in ([39]).

[3] = test system: intracellular T. cruzi amastigotes, strain Silvio X10/7 A1; test: intracellular T. cruzi amastigote potency assay; format: cell-based; conditions: Trypanosoma cruzi
[4] = kinetic aqueous solubility (CLND); format: physicochemical; conditions: phosphate buffered saline, aqueous buffer, kinetic from dmso stock, pH 7.4
Description: The eluent is quantified by suitably calibrated flow injection CLND. This assay has a dynamic range between the lower detection limit of 1 and 500 μM, governed by the protocol’s 1:20 dilution into pH 7.4 phosphate buffer solution from nominal 10 mM DMSO stock.

[5] = test system: intracellular T. cruzi Silvio X10/7 A1 in Vero cells; test: washout outgrowth assay; format: cell-based, Trypanosoma cruzi; conditions: 8-days treatment, BNZ at 12.5× EC50 (Fig. S7)
Description: Washout outgrowth assay: Vero cells were infected overnight in T600 flasks at a multiplicity of infection (MOI) 5 with T. cruzi Silvio X10/7 A1 trypomastigotes, followed by washing of the Vero monolayer to remove free trypomastigotes. 24 hours later the monolayer was trypsinised, 5.3 x 10^6 Vero cells were plated in T75 tissue culture flasks (in 20 ml MEM-Glutamax (ThermoFisher), 1% Fetal Calf Serum (FCS)), and treatment was started. For ten-day treatments, medium with compounds was replaced after the initial 5 days. For 16 day treatments the compounds were replaced every four days. For compound washout, all medium was aspirated, and flasks were washed three times with 10 ml serum-free MEM medium followed by a final aspiration and addition of 20 ml MEM-Glutamax (ThermoFisher) supplemented with 1% FCS. The cultures were then maintained until trypomastigotes were detected by light microscopy. Medium was replaced twice weekly and prior to each medium replacement microscopic evaluation was carried out (five fields per flask) for up to 60 days post washout. Robustness of the data was confirmed by profiling multiple compounds from the pyrrolopyrimidine series in a single experiment (compounds 2,3 and 4 in Fig. 2 and Fig. S17) as well as comparing results from independent experiments (compound 2 in Fig. 2, Fig. S5 and Fig. S7).

[6] = chromatographic LogD assay; format: physicochemical; conditions: reversed phase HPLC column (Gemini NX C18), pH 7.4; read-out: Chrom logD pH 7.4
Description: The chromatographic hydrophobicity index (CHI) values were measured using reversed phase HPLC column (50 mm × 2 mm, 3 μm Gemini NX C18, Phenomenex, U.K.) with fast acetonitrile gradient at starting mobile phase at pH 7.4. CHI values were derived directly from the gradient retention times by using a calibration line obtained for standard compounds. The CHI value approximates to the volume % organic concentration when the compound elutes. CHI was linearly transformed into ChromlogD by least-squares fitting of experimental CHI values to calculated log P (ClogP) values for over 20K research compounds using the following formula: ChromlogD = 0.0857CHI − 2.00. The average error of the assay is ±3 CHI units or ± 0.25 ChromlogD.

Property Forecast Index = format: physicochemical; conditions: number of aromatic rings + ChromLogD at pH 7.4
T. cruzi CYP51 = T. cruzi CYP51 (Trypanosoma cruzi, UniProt Q7Z1V1); test: T. cruzi CYP51 biochemical assay
Sequence of T. cruzi CYP51 (Q7Z1V1 whole entry): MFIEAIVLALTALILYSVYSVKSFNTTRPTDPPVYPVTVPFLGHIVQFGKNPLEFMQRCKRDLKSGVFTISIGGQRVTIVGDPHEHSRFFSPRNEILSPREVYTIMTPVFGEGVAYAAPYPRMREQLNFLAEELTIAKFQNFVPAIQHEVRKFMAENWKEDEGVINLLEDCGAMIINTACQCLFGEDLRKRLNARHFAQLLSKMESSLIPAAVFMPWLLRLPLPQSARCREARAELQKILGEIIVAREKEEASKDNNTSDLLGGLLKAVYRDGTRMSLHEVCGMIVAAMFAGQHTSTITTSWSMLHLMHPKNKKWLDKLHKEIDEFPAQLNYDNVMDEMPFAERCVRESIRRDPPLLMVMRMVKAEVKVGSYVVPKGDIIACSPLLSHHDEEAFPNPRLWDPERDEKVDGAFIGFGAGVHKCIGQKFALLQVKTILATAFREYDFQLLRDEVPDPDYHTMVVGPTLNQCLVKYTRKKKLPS

FaSSIF solubility assay = format: physicochemical; conditions: pH 6.5, 4 h
Description: Solubility of test compounds in fasted simulated intestinal fluid (FaSSIF) was determined at pH 6.5 after 4 h equilibration at rt. An amount of1 mL of FaSSIF buffer (3 mM sodium taurocholate, 0.75 mM lecithin in sodium phosphate buffer at pH 6.5) was added to manually weighed 1 mg of solid compound in a 2 mL HPLC autosampler vial. The resulting suspension was shaken at 900 rpm for 4 h at rt and then transferred to a Multiscreen HTS, 96-well solubility filter plate. The residual solid was removed by filtration. The supernatant solution was quantified by HPLC−UV using single-point calibration of a known concentration of the compound in DMSO. The dynamic range of the assay was 1−1000 μg/mL.

[7] = molecular target: T. cruzi complex III (epimastigote lysates) (Trypanosoma cruzi, UniProt Q9T479); test: T. cruzi complex III assay; format: biochemical; conditions: decylubiquinol substrate
Sequence of T. cruzi complex III (epimastigote lysates) (Q9T479 entry or part of it, one chain of several): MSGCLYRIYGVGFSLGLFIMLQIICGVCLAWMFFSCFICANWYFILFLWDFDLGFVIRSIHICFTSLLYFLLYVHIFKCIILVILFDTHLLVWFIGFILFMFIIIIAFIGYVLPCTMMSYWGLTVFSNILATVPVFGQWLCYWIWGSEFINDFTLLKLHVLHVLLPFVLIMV
Description: Complex III activity within these lysates was monitored in the presence and absence of compound 3, compound 5 and related analogues from this series, using decylubiquinol as a pseudo-substrate ([43]).
Measurement of complex III activity and inhibition were performed as described previously ([43]).

[8] = test system: T. cruzi epimastigotes bearing mutations in cytochrome b; test: epimastigote drug sensitivity assay, cytochrome b mutant / resistant lines; format: cell-based, Trypanosoma cruzi; conditions: for EC50: Trypanosoma cruzi
Description: (§1) T. cruzi epimastigotes from the Silvio strain (MHOM/BR/78/Silvio; clone X10/7A) were grown at 28°C in RTH/FBS medium ([80]).
(§2) T. cruzi epimastigote assays carried out as described previously ([43]).
Compound-resistant cell lines were generated by subculturing clones of wild-type T. cruzi epimastigotes in the continuous presence of compound 3 or compound 5. Starting at sublethal concentrations, drug concentrations in 3 independent cultures were increased in a stepwise manner, usually by 2-fold. When parasites were able to survive and grow in compound concentrations equivalent to >30-fold their established EC50 value, they were cloned by limiting dilution in the presence of compound. Three independent clones were selected from each compound for further study.

[9] = test system: wild-type T. cruzi epimastigotes; test: epimastigote drug sensitivity assay, wild-type; format: cell-based; conditions: Trypanosoma cruzi
Description: as §1, §2

[10] = read-out: Vero pEC50 (converted)
[11] = read-out: Trypomastigotes pEC50 (converted)
[12] = intracellular amastigotes Silvio X10/7 A1, 96 h, ± SD, min. three experiments, read-out: Amastigotes pEC50 (converted)

Compound: CC1CS(=O)(=O)CCN1/N=C/c1ccc([N+](=O)[O-])o1 (stereo not drawn) [NFX, nifurtimox]
- discontinuation of treatment prior to completion due to adverse side-effects [1]: ≤ 43%

Compound: CC[C@@H]([C@H](C)O)n1ncn(-c2ccc(N3CCN(c4ccc(OC[C@@H]5CO[C@@](Cn6cncn6)(c6ccc(F)cc6F)C5)cc4)CC3)cc2)c1=O [Posaconazole, reference compound]
- EC50 (HepG2 cells; read-out: HepG2 EC50): > 100000 nM
- EC50 (HepG2 cells; read-out: HepG2 pEC50 (converted)): > 100000 nM
- EC50 (Vero host cells; read-out: Vero EC50): > 50000 nM
- EC50 (Vero host cells; [10]): > 50100 nM
- EC50 ([2]; read-out: Trypomastigotes EC50): > 50000 nM
- EC50 [2, 11]: > 50100 nM
- EC50 [3, 12]: 2.51 nM
- EC50 ([3]; read-out: Amastigotes EC50): 3 nM
- solubility at 1 h [4]: 14 µg/mL (≈ 20 µM)
- washout outcome in combination with BNZ [5]: failed to eliminate all parasites
- chromatographic logD [6]: 6.1
- PFI (Property Forecast Index): 11.1

Compound: COc1ccccc1-c1c(C)[nH]c2nc(N)nc(C)c12 [Compound 1, 5-(2-methoxyphenyl)-4,6-dimethyl-7H-pyrrolo[2,3-d]pyrimidin-2-amine]
- IC50 (T. cruzi CYP51): > 100000 nM
- inhibition of recombinant T. cruzi CYP51 (T. cruzi CYP51; direct biochemical assay): did not inhibit
- FaSSIF pH 6.5 (FaSSIF solubility assay): 456 µg/mL
- EC50 (HepG2 cells; read-out: HepG2 EC50): > 100000 nM
- EC50 (Vero host cells; read-out: Vero EC50): > 50000 nM
- EC50 (Vero host cells; [10]): > 31600 nM
- Vero pEC50 (Vero host cells): < 4.3
- EC50 ([2]; read-out: Trypomastigotes EC50): 250 nM
- EC50 [2, 11]: 251 nM
- EC50 [3, 12]: 316 nM
- EC50 ([3]; read-out: Amastigotes EC50): 320 nM
- solubility at 1 h [4]: 110 µg/mL (≈ 410 µM)
- chromatographic logD [6]: 3.2
- PFI (Property Forecast Index): 6.2

Compound: COc1cc(F)ccc1-c1c(C)n(C)c2nc(N)nc(C)c12 [Compound 5, 5-(4-Fluoro-2-methoxyphenyl)-4,6,7-trimethyl-7H-pyrrolo[2,3-d]pyrimidin-2-amine]
- IC50 [7]: 1 ± 0.2 nM
- EC50 ([8]; read-out: EC50 F222L): 486 ± 18 nM
- EC50 ([8]; read-out: EC50 G36C/L197F cytb line): 1.2 ± 0.1 nM
- EC50 ([8]; read-out: EC50 G36C/L197I cytb line): 37 ± 2 nM
- EC50 ([8]; read-out: EC50 L197F cytb line): 1.1 ± 0.1 nM
- EC50 ([8]; read-out: EC50 L197I): 21 ± 0.5 nM
- EC50 ([8]; read-out: EC50 compound 5-resistant clone RES1): 417 ± 11 nM
- EC50 ([8]; read-out: EC50 compound 5-resistant clone RES2): 585 ± 30 nM
- EC50 ([8]; read-out: EC50 compound 5-resistant clone RES3): 635 ± 33 nM
- fold change from WT, L197I ([8]; compound 3-resistant line (L197I)): 10 fold
- fold change from WT, F222L ([8]; compound 5-resistant line (F222L)): 224 fold
- cross-resistance of G36C and L197I epimastigotes ([8]; versus wild-type): 9 fold
- EC50 ([9]; read-out: EC50 wild-type): 2.4 ± 0.1 nM
- EC50 ([9]; read-out: EC50 wild-type epimastigotes): 11.3 ± 0.5 nM
- EC50 ([9]; Table 2, wild-type epimastigotes, read-out: EC50 WT): 2 ± 0.1 nM
